How the values were obtained:
[1] = test system: DSEK cell (fibroblast strain from synovial membrane); assay: Growth of DSEK synovial fibroblasts (WST-1) and apoptosis; type: cell-based, human (patient suffering from chronic articular rheumatism)
Procedure: DSEK cell (cell strain stored at the Department of Second Internal Medicine, Integrated Medical Center, Saitama College of Medicine) which was a fibroblast strain established from synovial membrane of a patient suffering from chronic articular rheumatism was incubated in an Iscob-modified Dulbecco medium (IMDM, manufactured by Gibco, 12440-053) containing 10% fetal bovine serum (FBS, manufactured by Gibco, 26140-079) at 37° C. in the presence of 5% carbon dioxide gas until confluent and then the cells were collected by peeling off with trypsin-EDTA (manufactured by Gicbo, 25300-054). The cells were suspended in the above-mentioned medium until 25,000 cells/ml were resulted and each 100 μl was placed in each well of a 96-well microtiter plate. After five days from incubation when the state of confluence was almost achieved, the medium was discarded and then the above-mentioned medium containing 2.5, 5, 10, 20 or 30 μM of GM was added. After incubating for 24, 48 or 72 hours, 10 μl of a premix WST-1 (manufactured by Takara Shuzo, MK400) was added thereto followed by subjecting to a reaction at 37° C. for four hours. The value obtained by deducting the absorbance at 650 nm (A650) from that at 450 nm (A450) was defined as a degree of growth of cell.

[2] = test system: CEM-3B cells (CEM-SS cells infected with HIV-1IIIB); assay: Survival rate of HIV-1IIIB-infected CEM-SS cells (CEM-3B); type: cell-based; settings: for survival rate of cells: one day
Procedure: GM (0, 4, 8 or 16 μM) was added to 2×10^5 cell/ml of CEM-SS cells (ATCC CCL-119) and to CEM-SS cells infected with HIV-1IIIB (wherein not less than 90% of the CEM-SS cells were infected with the HIV-1IIIB; hereinafter, referred to as CEM-3B) incubation was conducted for one day, viable cell numbers and dead cell numbers were counted and survival cell rate was calculated.

[3] = test system: p24 antigen; assay: p24 antigen in culture supernatant of CEM-3B cells; type: cell-based, HIV-1IIIB; settings: one day
Procedure: (2) Concentration of p24 antigen contained in the supernatant liquid in the culture after incubation of the CEM-3B cells mentioned in Example 15-(1) for one day was measured.

[4] = test system: NIH 3T3/Y-1; assay: Colony formation of control-vector NIH 3T3/Y-1 cells; type: cell-based; settings: 5 μM GM, nine days; control 83.3 ± 8.4
Procedure: (§1) (1) Transformation to Escherichia coli HB101 was conducted by control plasmid pcD2-Y expressing G418-resisting gene [Mol. Cell. Biol., volume 7, pages 2745-2752 (1987)] and plasmid pcD2-16E7 which was capable of expressing both HPV 16 type E7 and G418-resisting gene [Jpn. J. Cancer Res., volume 82, pages 1340-1343 (1991)], then incubation was conducted in an L-broth medium and plasmid was extracted from the collected cells and purified by a cesium chloride density gradient ultracentrifugation to give vector plasmid for introduction of gene.
(§2) The purified plasmid (10 μg) was introduced into NIH 3T3 cells using a cationic liposome (TransIT LT-1, manufactured by Takara Shuzo), the cells were selected at 37° C. under the condition of 5% CO2 for two weeks in a Dulbecco-modified Eagle's medium containing 10% calf serum which contained 0.4 mg/ml of G418 (Gibco) and the resulting colonies were cloned to establish each nine strains of NIH 3T3 cells into which control vector was introdcd and NIH 3T3 cells which was cancerated with HPV 16 type E7.
The cell strains into which control vector was introduced were named NIH 3T3/Y-1, NIH 3T3/Y-2, NIH 3T3/Y-3, NIH 3T3/Y-4, NIH 3T3/Y-5, NIH 3T3/Y-6, NIH 3T3/Y-7, NIH 3T3/Y-8 and […]). […]
(§3) A part of the suspension was taken out and cell density was counted by a Neubauer's hemocytometer. […]

[5] = test system: NIH 3T3/E7-2; assay: Colony formation of HPV16 E7-transformed NIH 3T3/E7-2 cells; type: cell-based
Procedure: as §1, §2
The cells strains into which E7 was introduced were named NIH 3T3/E7-1, NIH 3T3/E7-2, NIH 3T3/E7-3, NIH 3T3/E7-4, NIH 3T3/E7-5, NIH 3T3/E7-6, NIH 3T3/E7-7, NIH 3T3/E7-8 and NIH 3T3/E7-9. […]
as §3

Compound: N[C@@H](CCC(=O)N[C@@H](CSC1C=C(O)C(=O)C1)C(=O)NCC(=O)O)C(=O)O (some centres unmarked) [GM, 2-hydroxy-4-glutathion-S-yl-2-cyclopenten-1-one]
- degree of growth of cell (A450 - A650) ([1]; 2.5 μM, 24 hours, 0 μM 0.846): 0.768
- degree of growth of cell (A450 - A650) ([1]; 2.5 μM, 48 hours, 0 μM 1.270): 1.133
- degree of growth of cell (A450 - A650) ([1]; 5 μM, 24 hours, 0 μM 0.846): 0.621
- degree of growth of cell (A450 - A650) ([1]; 5 μM, 48 hours, 0 μM 1.270): 0.942
- production of apoptic bodies ([1]; 10 μM): production of apoptic bodies was noted
- degree of growth of cell (A450 - A650) ([1]; 10 μM, 24 hours, 0 μM 0.846): 0.420
- degree of growth of cell (A450 - A650) ([1]; 10 μM, 48 hours, 0 μM 1.270): 0.486
- degree of growth of cell (A450 - A650) ([1]; 20 μM, 24 hours, 0 μM 0.846): 0.238
- degree of growth of cell (A450 - A650) ([1]; 20 μM, 48 hours, 0 μM 1.270): 0.185
- degree of growth of cell (A450 - A650) ([1]; 30 μM, 24 hours, 0 μM 0.846): 0.241
- degree of growth of cell (A450 - A650) ([1]; 30 μM, 48 hours, 0 μM 1.270): 0.196
- apoptosis-inducing and growth-inhibiting action to synovial cells (in words) ([1]; Example 11): apoptosis-inducing action and growth-inhibiting action to synovial cells
- minimal effective concentration ([1]; Homo sapiens, Fibroblast, 24 and 48 hours, vs control, read-out: concentration at which cell growth was inhibited): ≥ 5 µM
- survival rate of cells ([2]; 16 μM, compared with CEM-SS): decreased more significantly
- survival rate of cells ([2]; 4 or 8 μM): the survival rate significantly decreased depending upon the concentration
- selective cytocidal effect to HIV-infected cells, antiviral action to HIV ([2]; Example 15): selective cytocidal effect to HIV-infected cells
- p24 concentration in supernatant [3]: the p24 concentration decreased depending upon the concentration of the added GM
- Numbers of Colonies (Mean Value ± SD) [4]: 72.0 ± 9.5
- sensitivity of E7-introduced cells compared with control cells (in words) ([5]; 5 μM): high sensitivity to GM as compared with the control cells
- Numbers of Colonies (Mean Value ± SD) ([5]; 5 μM GM, nine days, control 67.3 ± 3.2): 13.3 ± 3.2

From US6177592A, “Compounds” (priority 1997, dated 2001)
